Where “and” joins values, the source holds several entries; their conditions need not be identical. Equal values may be shown once.
Experiments:
Type in all cases: in vivo
Hepatitis B Virus (HBV) [1] = experiment: Serum HBV DNA levels in pHBV model mice (qPCR); conditions: 0.8 mg/kg, injection on day 1 and day 22, Example 16
Excerpt: (§1) Six to eight-week-old female NOD.CB17-Prkdscid/NcrCrl (NOD-SCID) mice were transiently transfected in vivo with MC-HBV1.3 by hydrodynamic tail vein injection (Yang P L et al. “Hydrodynamic injection of viral DNA: a mouse model of acute hepatitis B virus infection,” PNAS USA 2002 Vol. 99: p. 13825-13830), administered 30 to 45 days prior to administration of an HBV RNAi agent or control. MC-HBV1.3 is a plasmid-derived minicircle that contains the same terminally redundant human hepatitis B virus sequence HBV1.3 as in plasmid pHBV1.3 and in the HBV1.3.32 transgenic mice (GenBank accession #V01460) (Guidotti L G et al., “High-level hepatitis B virus replication in transgenic mice,” J Virol 1995 Vol. 69, p 6158-6169.). 5 or 10 μg MC-HBV1.3 in Ringer's Solution in a total volume of 10% of the animal's body weight was injected into mice via tail vein to create pHBV model of chronic HBV infection. The solution was injected through a 27-gauge needle in 5-7 seconds as previously described (Zhang G et al., “High levels of foreign gene expression in hepatocytes after tail vein injection of naked plasmid DNA.” Human Gene Therapy 1999 Vol. 10, p 1735-1737.). At pre-dose (either day 1 pre-dose, day −1, or day −2), Hepatitis B surface antigen (HBsAg) HBsAg expression levels in serum were measured by ELISA and the mice were grouped according to average HBsAg expression levels.
(§2) HBV expression levels were normalized to pre-administration expression levels and to control mice injected with phosphate buffered saline (“PBS”).
Equal volumes of serum from mice in a group or subgroup were pooled to a final volume of 100 μL. DNA was isolated from serum samples using the QIAamp MinElute Virus Spin Kit (Qiagen, Valencia, Calif.) following the manufacturer's instructions. Sterile 0.9% saline was added to each sample to a final volume of 200 μL. Serum samples were added to tubes containing buffer and protease. Carrier RNA was added to aid in the isolation of small amounts of DNA. […] After incubating 15 min at 56° C., nucleic acids were precipitated from the lysates with ethanol and the entire solution applied to a column. After washing, the samples were eluted into a volume of 50 μL Buffer AVE.
The number of copies of HBV genomes in DNA isolated from the pHBV mouse model serum was determined by qPCR. Plasmid pSEAP-HBV353-777, encoding a short segment of the HBV genome within the S gene (bases 353-777 of GenBank accession #V01460), was used to create a six log standard curve. Samples with recovery of DNA below 2 standard deviations from the average, based on detection of pHCR/UbC-SEAP were omitted. TaqMan chemistry-based primers and probes with fluor/ZEN/IBFQ are utilized.
qPCR assays were performed on a 7500 Fast or StepOne Plus Real-Time PCR system (Life Technologies). For evaluation of HBV DNA in serum, DNA was isolated from singlet or duplicate purification steps from pooled group serum samples. Quantitations of HBV DNA and recovery control plasmid were determined by qPCR reactions performed in triplicate. The probes to quantitate HBV and pHCR/UbC-SEAP were included in each reaction.

Hepatitis B Virus (HBV) [2] = experiment: Serum HBsAg levels in pHBV model mice (ELISA); set-up: key to Average HBsAg levels normalized to pre-treatment (day −1) and PBS control / Average HBsAg levels normalized to pre-treatment and PBS control: fraction of pre-treatment level, relative to PBS control mean; conditions: for Average HBsAg normalized to pre-treatment and PBS control: 2.0 mg/kg, single s.c. injection on day 1
Excerpt: as §1, §2
Mice were anesthetized with 2-3% isoflurane and blood samples were collected from the submandibular area into serum separation tubes (Sarstedt AG & Co., Nümbrecht, Germany). Blood was allowed to coagulate at ambient temperature for 20 min. The tubes were centrifuged at 8,000×g for 3 min to separate the serum and stored at 4° C.
Serum was collected and diluted 10 to 8000-fold in PBS containing 5% nonfat dry milk. […] HBsAg levels were determined with a GS HBsAg EIA 3.0 kit (Bio-Rad Laboratories, Inc., Redmond, Wash.) as described by the manufacturer. Recombinant HBsAg protein, ayw subtype, also diluted in nonfat milk in PBS, was used as a primary standard (Aldevron).
HBsAg expression for each animal was normalized to the control group of mice injected with PBS in order to account for the non-treatment related decline in expression of MC-HBV1.3. First, the HBsAg level for each animal at a time point was divided by the pre-treatment level of expression in that animal in order to determine the ratio of expression “normalized to pre-treatment”. Expression at a specific time point was then normalized to the control group by dividing the “normalized to pre-treatment” ratio for an individual animal by the average “normalized to pre-treatment” ratio of all mice in the normal PBS control group.

Hepatitis B Virus (HBV) [3] = experiment: Serum HBeAg levels in pHBV model mice (ELISA); conditions: 0.8 mg/kg, injection on day 1 and day 22, Example 16
Excerpt: as §1, §2
HBeAg analysis was performed with the HBeAg enzyme linked immunosorbent assay (ELISA) as described by the manufacturer (DiaSorin) using serum diluted 4- to 20-fold in 5% nonfat dry milk. The amount of antigen was determined in the linear range of the assay and quantitated against HBeAg protein standards (Fitzgerald Industries International, catalog #30-AH18, Acton, Mass.).
HBeAg expression for each animal was normalized to the control group of mice injected with PBS in order to account for the non-treatment related decline in expression of MC-HBV1.3. For evaluation of HBeAg in serum, HBeAg is analyzed from pooled group or subgroup serum samples. First, the HBeAg level for each pooled group or subgroup was divided by the pre-treatment level of expression in the same group or subgroup in order to determine the ratio of expression “normalized to pre-treatment”. Expression at a specific time point was then normalized to the control group by dividing the “normalized to pre-treatment” ratio for a group or subgroup by the average “normalized to pre-treatment” ratio of all samples from the normal PBS control group.

Substance: AD05070: HBV RNAi agent duplex AM06606-AS/AM06605-SS (antisense UACCAAUUUAUGCCUACAGCG; sense CGCUGUAGGCAUAAAUUGGUA; chemistry not fully specified)
- Average Serum HBV DNA levels normalized to pre-treatment and PBS control (Hepatitis B Virus (HBV) [1]; Day 8): 1.124 ± 0.142
- Average Serum HBV DNA levels normalized to pre-treatment and PBS control (Hepatitis B Virus (HBV) [1]; Day 15): 0.742 ± 0.127
- Average Serum HBV DNA levels normalized to pre-treatment and PBS control (Hepatitis B Virus (HBV) [1]; Day 22): 0.807 ± 0.192
- Average HBsAg levels normalized to pre-treatment and PBS control (Hepatitis B Virus (HBV) [2]; Day 8, 0.8 mg/kg, injection on day 1 and day 22, Example 16): 0.446 ± 0.143
- Average HBsAg levels normalized to pre-treatment and PBS control (Hepatitis B Virus (HBV) [2]; Day 8, 0.8 mg/kg, single s.c. injection day 1, Example 8): 0.355 ± 0.099 and 0.271 ± 0.058
- Average HBsAg normalized to pre-treatment and PBS control (Hepatitis B Virus (HBV) [2]; Day 8, Example 15): 0.081 ± 0.026
- Average HBsAg levels normalized to pre-treatment and PBS control (Hepatitis B Virus (HBV) [2]; Day 14, 0.8 mg/kg, single s.c. injection day 1, Example 8): 0.366 ± 0.069 and 0.334 ± 0.060
- Average HBsAg levels normalized to pre-treatment and PBS control (Hepatitis B Virus (HBV) [2]; Day 14, 4.0 mg/kg, single s.c. injection day 1, Example 8): 0.069 ± 0.039 and 0.079 ± 0.047
- Average HBsAg levels normalized to pre-treatment and PBS control (Hepatitis B Virus (HBV) [2]; Day 15, 0.8 mg/kg, injection on day 1 and day 22, Example 16): 0.376 ± 0.120
- Average HBsAg normalized to pre-treatment and PBS control (Hepatitis B Virus (HBV) [2]; Day 15, Example 15): 0.127 ± 0.031
- Average HBsAg levels normalized to pre-treatment and PBS control (Hepatitis B Virus (HBV) [2]; Day 21, 0.8 mg/kg, single s.c. injection day 1, Example 8): 0.464 ± 0.055
- Average HBsAg levels normalized to pre-treatment and PBS control (Hepatitis B Virus (HBV) [2]; Day 21, 4.0 mg/kg, single s.c. injection day 1, Example 8): 0.145 ± 0.082
- Average HBsAg levels normalized to pre-treatment and PBS control (Hepatitis B Virus (HBV) [2]; Day 22, 0.8 mg/kg, injection on day 1 and day 22, Example 16): 0.474 ± 0.149
- Average HBsAg normalized to pre-treatment and PBS control (Hepatitis B Virus (HBV) [2]; Day 22, Example 15): 0.223 ± 0.057
- Average HBsAg levels normalized to pre-treatment and PBS control (Hepatitis B Virus (HBV) [2]; Day 28, 0.8 mg/kg, single s.c. injection day 1, Example 8): 0.624 ± 0.053
- Average HBsAg levels normalized to pre-treatment and PBS control (Hepatitis B Virus (HBV) [2]; Day 28, 4.0 mg/kg, single s.c. injection day 1, Example 8): 0.135 ± 0.061
- Average HBsAg levels normalized to pre-treatment and PBS control (Hepatitis B Virus (HBV) [2]; Day 29, 0.8 mg/kg, injection on day 1 and day 22, Example 16): 0.338 ± 0.123
- Average HBsAg normalized to pre-treatment and PBS control (Hepatitis B Virus (HBV) [2]; Day 29, Example 15): 0.330 ± 0.112
- Average HBsAg normalized to pre-treatment and PBS control (Hepatitis B Virus (HBV) [2]; Day 36, Example 15): 0.472 ± 0.121
- Average HBsAg normalized to pre-treatment and PBS control (Hepatitis B Virus (HBV) [2]; Day 43, Example 15): 0.515 ± 0.126
- Average HBsAg normalized to pre-treatment and PBS control (Hepatitis B Virus (HBV) [2]; Day 50, Example 15): 0.689 ± 0.167
- knockdown of HBsAg compared to PBS control (Hepatitis B Virus (HBV) [2]; Example 15, administered alone or in combination with AD04872, across each of the time points measured): significant knockdown of HBsAg
- Average HBeAg levels normalized to pre-treatment and PBS control (Hepatitis B Virus (HBV) [3]; Day 8): 0.634
- Average HBeAg levels normalized to pre-treatment and PBS control (Hepatitis B Virus (HBV) [3]; Day 15): 0.594 ± 0.082
- Average HBeAg levels normalized to pre-treatment and PBS control (Hepatitis B Virus (HBV) [3]; Day 22): 0.840 ± 0.152
- Average HBeAg levels normalized to pre-treatment and PBS control (Hepatitis B Virus (HBV) [3]; Day 29): 0.271 ± 0.029

From US20190255091A1, “RNAi AGENTS FOR [sequence] B VIRUS INFECTION” (priority 2016, published 2019)
